{"source": "paper PMC11768289", "about": "(Pharmaceuticals, 2025)", "key": {"[1]": {"test_system": "A549/ACE2/TMPRSS2 cells", "experiment": "Cell viability assay (MTS) in non-infected cells"}, "[2]": {"experiment": "Cell viability assay (MTS) in non-infected cells", "settings": "human"}, "[3]": {"test_system": "SARS-CoV-2 isolate USA-WA1/2020", "experiment": "microbe, parasite or virus in culture", "assay_type": "cell-based", "settings": "for EC50: read-out: SARS-CoV-2 EC50; for inhibition at 2.1 µM: Conc. 2.1 µM (0.4 × CC50)"}, "[4]": {"target": "T1, p97 (Homo sapiens, UniProt P55072)", "T1 construct": "made in house", "T1 sequence (P55072 whole entry)": "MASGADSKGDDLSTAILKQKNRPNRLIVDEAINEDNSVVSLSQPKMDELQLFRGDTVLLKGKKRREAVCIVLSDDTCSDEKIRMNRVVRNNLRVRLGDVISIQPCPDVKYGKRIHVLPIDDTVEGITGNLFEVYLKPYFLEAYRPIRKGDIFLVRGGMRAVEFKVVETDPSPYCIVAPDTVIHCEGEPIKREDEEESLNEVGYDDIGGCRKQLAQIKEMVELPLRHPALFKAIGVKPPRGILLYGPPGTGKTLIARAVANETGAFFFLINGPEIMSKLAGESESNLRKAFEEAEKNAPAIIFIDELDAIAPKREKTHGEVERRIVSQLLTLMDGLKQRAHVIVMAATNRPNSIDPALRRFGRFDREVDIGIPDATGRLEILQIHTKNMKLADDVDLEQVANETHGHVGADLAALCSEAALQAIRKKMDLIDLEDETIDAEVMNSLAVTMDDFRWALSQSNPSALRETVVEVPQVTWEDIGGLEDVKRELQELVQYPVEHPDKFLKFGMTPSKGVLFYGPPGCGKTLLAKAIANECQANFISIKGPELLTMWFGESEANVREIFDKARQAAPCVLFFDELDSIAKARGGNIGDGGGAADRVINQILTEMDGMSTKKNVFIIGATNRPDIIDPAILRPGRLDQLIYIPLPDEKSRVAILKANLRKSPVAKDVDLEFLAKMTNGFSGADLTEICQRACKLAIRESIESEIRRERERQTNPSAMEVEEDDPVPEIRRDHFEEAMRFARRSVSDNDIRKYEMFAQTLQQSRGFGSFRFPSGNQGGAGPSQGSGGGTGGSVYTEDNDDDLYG", "experiment": "p97 biochemical assay (ATPase activity, PNP/MesG coupled)", "settings": "0.2 mM ATP, 5 min preincubation; for inhibition at 0.1 µM: read-out: p97 Inhib. (%) at 0.10 µM, compound 0.10 µM; for inhibition at 1 µM: read-out: p97 Inhib. (%) at 1.0 µM, compound 1.0 µM; for p97 Inhib. (%) at 0.10 µM: compound 0.10 µM"}, "[5]": {"settings": "Severe acute respiratory syndrome coronavirus 2, A549-ACE2, 48 h, read-out: SARS-CoV-2 Inhib. (%)"}, "[6]": {"settings": "tested at 0.4 × CC50, or at 50 µM if CC50 higher than 100 µM, A549/ACE2/TMPRSS2"}, "[7]": {"settings": "Severe acute respiratory syndrome coronavirus 2, A549-ACE2, 48 h"}, "[8]": {"settings": "Severe acute respiratory syndrome coronavirus 2, A549/ACE2/TMPRSS2, MOI 0.01, 48 h, mean ± standard error, read-out: SARS-CoV-2 Inhib. (%)"}, "[9]": {"settings": "Severe acute respiratory syndrome coronavirus 2, Conc. 50 µM, A549/ACE2/TMPRSS2, MOI 0.01, 48 h, mean ± standard error, read-out: SARS-CoV-2 Inhib. (%)"}}, "note": "Where two headings read alike, the source gives them in different places."}
{"smiles": "Cc1cc2c(C(N)=O)cccc2n1-c1nc2c(c(NCc3ccccc3)n1)COCC2", "note": "[CB-5083, reference compound]", "values": [{"measurement": "CC50", "setting": "[1]; non-infected A549/ACE2/TMPRSS2 cells, MTS, 48 h", "result": "highly toxic"}, {"measurement": "CC50 at 48 h", "setting": "[2]", "result": 0.95, "unit": "µM"}, {"measurement": "anti-SARS-CoV-2 activity (in words)", "setting": "[3]", "result": "minimal inhibition"}, {"measurement": "inhibition at 0.38 µM", "setting": "[3]; [5]", "result": "6 ± 4", "unit": "%"}]}
{"smiles": "Cc1cc2c(C(N)=O)cccc2n1-c1nc(NCc2ccccc2)cc(C2CCCCC2)n1", "note": "[Compound 12]", "values": [{"measurement": "p97 Inhib. (%) at 1.0 µM", "setting": "[4]; compound 1.0 µM", "result": "minimal inhibition"}, {"measurement": "inhibition at 0.1 µM", "setting": "[4]", "result": 18, "unit": "%"}, {"measurement": "inhibition at 1 µM", "setting": "[4]", "result": 21, "unit": "%"}]}
{"smiles": "C=CS(=O)(=O)Nc1cccc2c1cc(C)n2-c1nc(NCc2ccccc2)cc(C2CCCCC2)n1", "note": "[Compound 10c, N-(1-(4-(Benzylamino)-6-cyclohexylpyrimidin-2-yl)-2-methyl-1H-indol-4-yl)ethenesulfonamide]", "values": [{"measurement": "inhibition at 0.1 µM", "setting": "[4]", "result": 68, "unit": "%"}, {"measurement": "inhibition at 1 µM", "setting": "[4]", "result": 95, "unit": "%"}, {"measurement": "CC50 at 48 h", "setting": "[2]", "result": 12, "unit": "µM"}, {"measurement": "inhibition at 4.8 µM", "setting": "[3]; Severe acute respiratory syndrome coronavirus 2, Conc. 4.8 µM (0.4 × CC50), A549/ACE2/TMPRSS2, MOI 0.01, 48 h, mean ± standard error, read-out: SARS-CoV-2 Inhib. (%)", "result": "7 ± 3", "unit": "%"}, {"measurement": "anti-SARS-CoV-2 activity (in words)", "setting": "[3]; [6]", "result": "marginal inhibition"}]}
{"smiles": "CC#CC(=O)Nc1cccc2c1cc(C)n2-c1nc(NCc2ccccc2)cc(N2CCOCC2)n1", "note": "[Compound 8a, N-(1-(4-(Benzylamino)-6-morpholinopyrimidin-2-yl)-2-methyl-1H-indol-4-yl)but-2-ynamide]", "values": [{"measurement": "inhibition at 0.1 µM", "setting": "[4]", "result": "~90", "unit": "%"}, {"measurement": "inhibition at 1 µM", "setting": "[4]", "result": 97, "unit": "%"}, {"measurement": "CC50 at 48 h", "setting": "[2]", "result": 2.4, "unit": "µM"}, {"measurement": "inhibition at 0.96 µM", "setting": "[3]; [5]", "result": "3 ± 5", "unit": "%"}]}
{"smiles": "Cc1cc(OCc2nnc(SC3CCCC3)n2-c2cccnc2)ccc1-c1ccc(S(C)(=O)=O)cc1", "note": "[NMS-873, reference compound]", "values": [{"measurement": "p97 Inhib. (%) at 0.10 µM", "setting": "[4]", "result": "poor inhibition"}, {"measurement": "inhibition at 0.1 µM", "setting": "[4]", "result": 5, "unit": "%"}, {"measurement": "inhibition at 1 µM", "setting": "[4]", "result": 84, "unit": "%"}, {"measurement": "fold less toxic than CB-5083", "setting": "[1]; A549/ACE2/TMPRSS2 cells, relative to CB-5083", "result": "approximately 4 fold"}, {"measurement": "CC50 at 48 h", "setting": "[2]", "result": 4.1, "unit": "µM"}, {"measurement": "inhibition at 1.6 µM", "setting": "[3]; Severe acute respiratory syndrome coronavirus 2, Conc. 1.6 µM (0.4 × CC50), A549/ACE2/TMPRSS2, MOI 0.01, 48 h, mean ± standard error, read-out: SARS-CoV-2 Inhib. (%)", "result": 0, "unit": "%"}, {"measurement": "anti-SARS-CoV-2 activity (in words)", "setting": "[3]; [6]", "result": "minimal inhibition"}]}
{"smiles": "CC#CC(=O)Nc1cccc2c1cc(C)n2-c1nc(NCc2ccccc2)cc(N2CCCCC2)n1", "note": "[Compound 9a, N-(1-(4-(Benzylamino)-6-(piperidin-1-yl)pyrimidin-2-yl)-2-methyl-1H-indol-4-yl)but-2-ynamide]", "values": [{"measurement": "p97 Inhib. (%) at 0.10 µM", "setting": "[4]", "result": 94, "unit": "%"}, {"measurement": "inhibition at 0.1 µM", "setting": "[4]", "result": "> 90", "unit": "%"}, {"measurement": "inhibition at 1 µM", "setting": "[4]", "result": 100, "unit": "%"}, {"measurement": "CC50 at 48 h", "setting": "[2]", "result": 76, "unit": "µM"}, {"measurement": "EC50", "setting": "[3]; [7]", "result": "6.7 ± 0.8", "unit": "µM"}, {"measurement": "inhibition at 30 µM", "setting": "[3]; [5]", "result": 98, "unit": "%"}, {"measurement": "anti-SARS-CoV-2 activity (in words)", "setting": "[3]; [6]", "result": "excellent antiviral activity"}]}
{"smiles": "CC#CC(=O)Nc1cccc2c1cc(C)n2-c1nc(NCc2ccccc2)cc(C2CCCCC2)n1", "note": "[Compound 10a, N-(1-(4-(Benzylamino)-6-cyclohexylpyrimidin-2-yl)-2-methyl-1H-indol-4-yl)but-2-ynamide]", "values": [{"measurement": "inhibition at 0.1 µM", "setting": "[4]", "result": "~90", "unit": "%"}, {"measurement": "inhibition at 1 µM", "setting": "[4]", "result": 100, "unit": "%"}, {"measurement": "CC50 at 48 h", "setting": "[2]", "result": "> 100", "unit": "µM"}, {"measurement": "EC50", "setting": "[3]; [7]", "result": "6.8 ± 0.6", "unit": "µM"}, {"measurement": "inhibition at 50 µM", "setting": "[3]; [5]", "result": "96 ± 1", "unit": "%"}, {"measurement": "anti-SARS-CoV-2 activity (in words)", "setting": "[3]; [6]", "result": "excellent antiviral activity"}]}
{"smiles": "CC#CC(=O)Nc1cccc2c1cc(C)n2-c1nc2c(c(NCc3ccccc3)n1)CCCC2", "note": "[Compound 6a, reference compound]", "values": [{"measurement": "inhibition at 0.1 µM", "setting": "[4]", "result": 57, "unit": "%"}, {"measurement": "inhibition at 1 µM", "setting": "[4]", "result": 97, "unit": "%"}, {"measurement": "inhibition at 0.22 µM", "setting": "[3]; Severe acute respiratory syndrome coronavirus 2, Conc. 0.22 µM (0.4 × CC50), A549/ACE2/TMPRSS2, MOI 0.01, 48 h, mean ± standard error, read-out: SARS-CoV-2 Inhib. (%)", "result": "6 ± 3", "unit": "%"}, {"measurement": "anti-SARS-CoV-2 activity (in words)", "setting": "[3]; [6]", "result": "minimal inhibition"}]}
{"smiles": "C=CC(=O)Nc1cccc2c1cc(C)n2-c1nc(NCc2ccccc2)cc(N2CCOCC2)n1", "note": "[Compound 8b, N-(1-(4-(Benzylamino)-6-morpholinopyrimidin-2-yl)-2-methyl-1H-indol-4-yl)acrylamide]", "values": [{"measurement": "inhibition at 0.1 µM", "setting": "[4]", "result": 77, "unit": "%"}, {"measurement": "inhibition at 1 µM", "setting": "[4]", "result": 96, "unit": "%"}, {"measurement": "CC50 at 48 h", "setting": "[2]", "result": 5.2, "unit": "µM"}, {"measurement": "inhibition at 2.1 µM", "setting": "[3]; [8]", "result": "5 ± 8", "unit": "%"}]}
{"smiles": "C=CC(=O)Nc1cccc2c1cc(C)n2-c1nc(NCc2ccccc2)cc(N2CCCCC2)n1", "note": "[Compound 9b, N-(1-(4-(Benzylamino)-6-(piperidin-1-yl)pyrimidin-2-yl)-2-methyl-1H-indol-4-yl)acrylamide]", "values": [{"measurement": "inhibition at 0.1 µM", "setting": "[4]", "result": 64, "unit": "%"}, {"measurement": "inhibition at 1 µM", "setting": "[4]", "result": 91, "unit": "%"}, {"measurement": "inhibition at 50 µM", "setting": "[3]; [9]", "result": "28 ± 3", "unit": "%"}, {"measurement": "anti-SARS-CoV-2 activity (in words)", "setting": "[3]; [6]", "result": "markedly reduced"}]}
{"smiles": "CC#CC(=O)Nc1cccc2c1cc(C)n2-c1nc2c(c(NCc3ccccc3)n1)COCC2", "note": "[Compound 6b, reference compound]", "values": [{"measurement": "inhibition at 0.1 µM", "setting": "[4]", "result": 38, "unit": "%"}, {"measurement": "inhibition at 1 µM", "setting": "[4]", "result": 95, "unit": "%"}, {"measurement": "inhibition at 0.46 µM", "setting": "[3]; Severe acute respiratory syndrome coronavirus 2, Conc. 0.46 µM (0.4 × CC50), A549/ACE2/TMPRSS2, MOI 0.01, 48 h, mean ± standard error, read-out: SARS-CoV-2 Inhib. (%)", "result": 5, "unit": "%"}, {"measurement": "anti-SARS-CoV-2 activity (in words)", "setting": "[3]; [6]", "result": "minimal inhibition"}]}
{"smiles": "CCC(CC)COC(=O)[C@H](C)N[P@](=O)(OC[C@H]1O[C@@](C#N)(c2ccc3c(N)ncnn23)[C@H](O)[C@@H]1O)Oc1ccccc1", "note": "[remdesivir, reference compound]", "values": [{"measurement": "CC50 at 48 h", "setting": "[2]", "result": "> 10", "unit": "µM"}, {"measurement": "EC50", "setting": "[3]; [7]", "result": 0.044, "unit": "µM"}, {"measurement": "inhibition at 2 µM", "setting": "[3]; [5]", "result": 100, "unit": "%"}]}
{"smiles": "C=CS(=O)(=O)Nc1cccc2c1cc(C)n2-c1nc(NCc2ccccc2)cc(N2CCCCC2)n1", "note": "[Compound 9c, N-(1-(4-(Benzylamino)-6-(piperidin-1-yl)pyrimidin-2-yl)-2-methyl-1H-indol-4-yl)ethenesulfonamide]", "values": [{"measurement": "inhibition at 0.1 µM", "setting": "[4]", "result": 73, "unit": "%"}, {"measurement": "inhibition at 1 µM", "setting": "[4]", "result": 95, "unit": "%"}, {"measurement": "CC50 at 48 h", "setting": "[2]", "result": 15, "unit": "µM"}, {"measurement": "inhibition at 5.9 µM", "setting": "[3]; [5]", "result": 0, "unit": "%"}, {"measurement": "anti-SARS-CoV-2 activity (in words)", "setting": "[3]; [6]", "result": "marginal inhibition"}]}
{"smiles": "C=CC(=O)Nc1cccc2c1cc(C)n2-c1nc(NCc2ccccc2)cc(C2CCCCC2)n1", "note": "[Compound 10b, N-(1-(4-(Benzylamino)-6-cyclohexylpyrimidin-2-yl)-2-methyl-1H-indol-4-yl)acrylamide]", "values": [{"measurement": "inhibition at 0.1 µM", "setting": "[4]", "result": 70, "unit": "%"}, {"measurement": "inhibition at 1 µM", "setting": "[4]", "result": 96, "unit": "%"}, {"measurement": "CC50 at 48 h", "setting": "[2]", "result": "> 100", "unit": "µM"}, {"measurement": "inhibition at 50 µM", "setting": "[3]; [9]", "result": "30 ± 9", "unit": "%"}, {"measurement": "anti-SARS-CoV-2 activity (in words)", "setting": "[3]; [6]", "result": "markedly reduced"}]}
{"smiles": "C=CS(=O)(=O)Nc1cccc2c1cc(C)n2-c1nc(NCc2ccccc2)cc(N2CCOCC2)n1", "note": "[Compound 8c, N-(1-(4-(Benzylamino)-6-morpholinopyrimidin-2-yl)-2-methyl-1H-indol-4-yl)ethenesulfonamide]", "values": [{"measurement": "inhibition at 0.1 µM", "setting": "[4]", "result": 65, "unit": "%"}, {"measurement": "inhibition at 1 µM", "setting": "[4]", "result": 89, "unit": "%"}, {"measurement": "CC50 at 48 h", "setting": "[2]", "result": 5.2, "unit": "µM"}, {"measurement": "inhibition at 2.1 µM", "setting": "[3]; [8]", "result": "8 ± 3", "unit": "%"}]}
